From patent publication US7820659B2, “Cyclohexylimidiazole lactam derivatives as inhibitors of 11-β-hydroxysteroid dehydrogenase 1” (Eli Lilly and Company, priority 2006, dated 2010) come the findings set out here.

Structures are written as SMILES.

Assay [1] addresses recombinant human 11β-HSD type 1 enzyme (Homo sapiens, UniProt P28845). Description: 11β-HSD Type 1 Enzyme Assay (NADPH fluorescence). It counts as biochemical. The settings on record: three hour incubation at room temperature, read-out: Human 11-βHSD1 IC50. The protocol: 11β-HSD Type 1 Enzyme Assay
Human 11β-HSD type 1 activity is measured by assaying NADPH production by fluorescence assay. Solid compounds are dissolved in DMSO to a concentration of 10 mM. Twenty microliters of each are then transferred to a column of a 96-well polypropylene Nunc plate where they are further diluted 50-fold followed by subsequent two-fold titration, ten times across the plate with additional DMSO using a Tecan Genesis 200 automated system. Plates are then transferred to a Tecan Freedom 200 system with an attached Tecan Temo 96-well head and an Ultra 384 plate reader. Reagents are supplied in 96-well polypropylene Nunc plates and are dispensed individually into black 96-well Molecular Devices High Efficiency assay plates (40 μL/well capacity) in the following fashion: 9 μL/well of substrate (2.22 mM NADP, 55.5 μM Cortisol, 10 mM Tris, 0.25% Prionex, 0.1% Triton X100), 3 μL/well of water to compound wells or 3 μL to control and standard wells, 6 μL/well recombinant human 11β-HSD type 1 enzyme, 2 μL/well of compound dilutions. […] Final DMSO concentration is 0.5% for all compounds, controls and standards. Plates are then placed on a shaker by the robotic arm of the Tecan for 15 seconds before being covered and stacked for a three hour incubation period at room temperature. Upon completion of this incubation, the Tecan robotic arm removes each plate individually from the stacker and places them in position for addition of 5 μL/well of a 250 μM carbenoxolone solution to stop the enzymatic reaction. Plates are then shaken once more for 15 seconds then placed into an Ultra 384 microplate reader (355EX/460EM) for detection of NADPH fluorescence.

In assay [2] the target is T1, 11β-HSD1 in primary human aortic smooth muscle cells (AoSMC) (Homo sapiens, UniProt P28845).
T1 construct: containing 12 ng/mL hTNFα to induce expression of 11β-HSD1; endogenous in cells; host or cells: primary human aortic smooth muscle cells (AoSMC), induced with hTNFα
Description: Human Aortic Smooth Muscle Cell Assay (cortisone to cortisol conversion). It counts as cell-based. The settings on record: hTNFα-induced 11β-HSD1, cortisol by time resolved immunoassay. The protocol: Human Aortic Smooth Muscle Cell Assay
Primary human aortic smooth muscle cells (AoSMC) are cultured in 5% FBS growth medium to a passage number of 6, then pelleted by centrifugation and resuspended at a density of 9×10^4 cells/mL in 0.5% FBS assay medium containing 12 ng/mL hTNFα to induce expression of 11β-HSD1. Cells are seeded into 96-well tissue culture assay plates at 100 μL/well (9×10^3 cells/well) and incubated for 48 hours at 37° C., 5% CO2. Following induction, cells are incubated for 4 hours at 37° C., 5% CO2 in assay medium containing test compounds then treated with 10 μL/well of 10 μM cortisone solubilized in assay medium, and incubated for 16 hours at 37° C., 5% CO2. Medium from each well is transferred to a plate for subsequent analysis of cortisol using a competitive fluorescence resonance time resolved immunoassay. In solution, an allophycocyanin (APC)-cortisol conjugate and free cortisol analyte compete for binding to a mouse anti-cortisol antibody/Europium (Eu)-anti mouse IgG complex. Higher levels of free cortisol result in diminishing energy transfer from the Europium-IgG to the APC-cortisol complex resulting in less APC fluorescence. Fluorescent intensities for Europium and APC are measured using a LJL Analyst AD. Europium and APC excitation is measured using 360 nm excitation and 615 nm and 650 nm emission filters respectively. Time resolved parameters for Europuium were 1000 μs integration time with a 200 μs delay. APC parameters are set at 150 μs integration time with a 50 μs delay. Fluorescent intensities measured for APC are modified by dividing by the Eu fluorescence (APC/Eu). This ratio is then used to determine the unknown cortisol concentration by interpolation using a cortisol standard curve fitted with a 4-parameter logistic equation. These concentrations are then used to determine compound activity by plotting concentration versus % inhibition, fitting with a 4-parameter curve and reporting the IC50.

A further assay relates to cortisone conversion. In words: Acute In Vivo Cortisone Conversion Assay. Also noted: species or system male C57BL/6 mice. The note with it: mice, oral dose of 10 mg/kg, cortisone challenge 30 mg/kg s.c. after 16 hours, serum cortisol by LC-MS/MS. The method, then: Acute In Vivo Cortisone Conversion Assay
In general, compounds are dosed orally into mice, the mice are challenged with a subcutaneous injection of cortisone at a set timepoint after compound injection, and the blood of each animal is collected some time later. Separated serum is then isolated and analyzed for levels of cortisone and cortisol by LC-MS/MS, followed by calculation of mean cortisol and percent inhibition of each dosing group. Specifically, male C57BL/6 mice are obtained from Harlan Sprague Dawley at average weight of 25 grams. Exact weights are taken upon arrival and the mice randomized into groups of similar weights. Compounds are prepared in 1% w-w HEC, 0.25% w-w polysorbate 80, 0.05% w-w Dow Corning antifoam #1510-US at various doses based on assumed average weight of 25 grams. Compounds are dosed orally, 200 μl per animal, followed by a subcutaneous dose, 200 μl per animal, of 30 mg/kg cortisone at 1 to 24 hours post compound dose. At 10 minutes post cortisone challenge, each animal is euthanized for 1 minute in a CO2 chamber, followed by blood collection via cardiac puncture into serum separator tubes. Once fully clotted, tubes are spun at 2500×g, 4° C. for 15 minutes, the serum transferred to wells of 96-well plates (Corning Inc, Costar #4410, cluster tubes, 1.2 ml, polypropylene), and the plates are frozen at −20° C. until analysis by LC-MS/MS. For analysis, serum samples are thawed and the proteins are precipitated by the addition of acetonitrile containing d-4-cortisol internal standard. Samples are vortex mixed and centrifuged. The supernatant is removed and dried under a stream of warm nitrogen. Extracts are reconstituted in methanol/water (1:1) and injected onto the LC-MS/MS system. The levels of cortisone and cortisol are assayed by selective reaction monitoring mode following positive ACPI ionization on a triple quadrupole mass spectrophotometer.

Chain of recombinant human 11β-HSD type 1 enzyme (P28845 whole entry): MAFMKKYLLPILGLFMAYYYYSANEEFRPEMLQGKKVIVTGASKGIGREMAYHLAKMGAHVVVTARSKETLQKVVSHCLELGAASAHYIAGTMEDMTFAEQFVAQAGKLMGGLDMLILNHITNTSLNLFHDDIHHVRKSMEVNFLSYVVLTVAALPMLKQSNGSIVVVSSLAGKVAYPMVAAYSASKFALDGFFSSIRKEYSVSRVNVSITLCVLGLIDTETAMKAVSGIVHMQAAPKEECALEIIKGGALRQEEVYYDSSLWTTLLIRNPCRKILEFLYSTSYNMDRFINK
T1 sequence (P28845 whole entry): as above

As for `O=C1C(Cc2c(Cl)cc(-c3ccc(Cl)cc3)cc2Cl)CCN1C1CCc2nc[nH]c2C1` (stereo not shown) [Example 1, 1-(4,5,6,7-Tetrahydro-3H-benzoimidazol-5-yl)-3-(3,5,4′-trichloro-biphenyl-4-ylmethyl)-pyrrolidin-2-one], the IC50 in assay [1] came to 325 nM; in assay [2], 6.8 nM.
Taken in the same sequence, the figures for `O=C1C(Cc2c(Cl)cc(-c3ccc(F)cc3)cc2Cl)CCN1C1CCc2[nH]cnc2C1` (stereo not shown) [Example 15, 3-(3,5-Dichloro-4′-fluoro-biphenyl-4-ylmethyl)-1-(4,5,6,7-tetrahydro-1H-benzoimidazol-5-yl)-pyrrolidin-2-one] were 214 nM and 3.2 nM.
Take `O=C1[C@H](Cc2c(Cl)cc(-c3ccc(N4CCOCC4)cc3)cc2Cl)CCN1C1CCc2[nH]cnc2C1` (stereo partly drawn) [Example 29, (R)-3-(3,5-Dichloro-4′-morpholin-4-yl-biphenyl-4-ylmethyl)-1-(4,5,6,7-tetrahydro-1H-benzoimidazol-5-yl)-pyrrolidin-2-one]: the IC50 in assay [1] came out at 75.4 nM; in assay [2] it was 0.6 nM. Besides, the “% Inhibition after 16 hours (dose of 10 (mg/kg))” value in the assay on cortisone conversion came out at 52%.
For `O=C1[C@H](Cc2c(Cl)cc(-c3ccc(N4CCOCC4)nc3F)cc2Cl)CCN1C1CCc2[nH]cnc2C1` (stereo partly drawn) [Example 32, (R)-3-[2,6-Dichloro-4-(2-fluoro-6-morpholin-4-yl-pyridin-3-yl)-benzyl]-1-(4,5,6,7-tetrahydro-1H-benzoimidazol-5-yl)-pyrrolidin-2-one] the same measures were 175 nM, 3 nM and 59.2%.
For the molecule `O=C(c1ccc(-c2cc(Cl)c(C[C@@H]3CCN(C4CCc5nc[nH]c5C4)C3=O)c(Cl)c2)cc1)N1CCC(C(F)(F)F)CC1` (stereo partly shown) [Example 42, 3-[R]-[3,5-Dichloro-4′-(4-trifluoromethyl-piperidine-1-carbonyl)-biphenyl-4-ylmethyl]-1-(4,5,6,7-tetrahydro-3H-benzoimidazol-5-yl)-pyrrolidin-2-one], the IC50 is 143 nM in assay [1] and 4.5 nM in assay [2]. In the assay with cortisone conversion, the “% Inhibition after 16 hours (dose of 10 (mg/kg))” value is recorded as 98.4%.

The term IC50 denotes the concentration that inhibits the measured activity by half.
